Measured values from patent US10597388B2, “Pyridazinone herbicides” (FMC CORPORATION, priority 2014, dated 2020).

Legend:
Test in all cases: Test E greenhouse herbicide test, pre- and postemergence
Format in all cases: in vivo
[1] = tested on: ragweed (common ragweed, Ambrosia elatior)
How it was run: (§1)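 Seedlings reaching 2–18 cm (1- to 4-leaf stage) received foliar treatment, while seeds in silt loam received a soil surface spray; the vehicle in each case was a non-phytotoxic solvent mixture including surfactant. Visual scoring versus controls followed 14–21 d later on a 0–100 scale.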

[2] = tested on: momingglory (Ipomoea coccinea); conditions: Preemergence
How it was run: as §1

[3] = tested on: crabgrass, Brazilian (Brazilian crabgrass, Digitaria horizontalis)
How it was run: as §1

[4] = tested on: pigweed, palmer (palmer pigweed, Amaranthus palmeri)
How it was run: as §1

[5] = tested on: horseweed (Conyza canadensis)
How it was run: as §1

[6] = tested on: johnsongrass (Sorghum halepense); conditions: Preemergence
How it was run: as §1

[7] = tested on: goosegrass (Eleusine indica); conditions: Preemergence
How it was run: as §1

[8] = tested on: waterhemp (common waterhemp, Amaranthus rudis)
How it was run: as §1

[9] = tested on: field bindweed (Convolvulus arvensis)
How it was run: as §1

[10] = tested on: dayflower (Virginia (VA) dayflower, Commelina virginica)
How it was run: as §1

[11] = tested on: foxtail, giant (giant foxtail, Setaria faberii); conditions: Preemergence
How it was run: as §1

[12] = tested on: velvetleaf (Abutilon theophrasti); conditions: Preemergence
How it was run: as §1

[13] = tested on: crabgrass, large (large crabgrass, Digitaria sanguinalis); conditions: Preemergence
How it was run: as §1

[14] = tested on: arrowleaf sida (Sida rhombifolia)
How it was run: as §1

corn (Zea mays) = tested on: corn (Zea mays)
How it was run: as §1

[15] = tested on: surinam grass (Brachiaria decumbens); conditions: Preemergence
How it was run: as §1

[16] = tested on: nightshade (eastern black nightshade, Solanum ptycanthum); conditions: Preemergence
How it was run: as §1

[17] = 62 g ai/ha, Postemergence, scale 0 to 100 (0 no effect, 100 complete control)
[18] = 125 g ai/ha, Postemergence, scale 0 to 100 (0 no effect, 100 complete control)
[19] = 125 g ai/ha, Preemergence, scale 0 to 100 (0 no effect, 100 complete control)
[20] = Postemergence, 16 g ai/ha, visual, scale 0 no effect to 100 complete control
[21] = Postemergence, 31 g ai/ha, visual, scale 0 no effect to 100 complete control
[22] = Preemergence, 16 g ai/ha, scale 0 to 100, 0 no effect, 100 complete control
[23] = Preemergence, 31 g ai/ha, scale 0 to 100, 0 no effect, 100 complete control
[24] = 125 g ai/ha, scale 0 to 100 (0 no effect, 100 complete control)
[25] = 16 g ai/ha, scale 0 to 100, 0 no effect, 100 complete control
[26] = 31 g ai/ha, scale 0 to 100, 0 no effect, 100 complete control
[27] = 62 g ai/ha, Preemergence, scale 0 to 100 (0 no effect, 100 complete control)
[28] = 62 g ai/ha, scale 0 to 100 (0 no effect, 100 complete control)

CCC(=O)Oc1c(C)nn(C)c(=O)c1-c1c(C)sc2ccc(Cl)cc12 [Compound 109]
30: Plant response rating, Crabgrass, Brazil [3, 17] | Plant response rating, Dayflower, VA [10, 20] | Plant response rating, Dayflower, VA [10, 21] | Plant response rating, Arrowleaf Sida [14, 27] | Plant response rating, Surinam Grass [15, 26]
100: Plant response rating, Ragweed [1, 19] | Plant response rating, Pigweed, Palmer [4, 18] | Plant response rating, Horseweed [5, 27] | Plant response rating, Horseweed [5, 19] | Plant response rating, Horseweed [5, 23]
95: Plant response rating, Ragweed [1, 18] | Plant response rating, Field Bindweed [9, 17]
60: Plant response rating, Crabgrass, Brazil [3, 23] | Plant response rating, Pigweed, Palmer [4, 20] | Plant response rating, Horseweed [5, 20] | Plant response rating, Waterhemp [8, 20] | Plant response rating, Dayflower, VA [10, 18] | Plant response rating, Arrowleaf Sida [14, 17]
70: Plant response rating, Crabgrass, Brazil [3, 19] | Plant response rating, Crabgrass, Brazil [3, 22]
20: Plant response rating, Pigweed, Palmer [4, 23] | Plant response rating, Goosegrass [7, 26] | Plant response rating, Corn (corn (Zea mays); [18])
90: Plant response rating, Ragweed [1, 17] | Plant response rating, Horseweed [5, 17] | Plant response rating, Waterhemp [8, 18] | Plant response rating, Field Bindweed [9, 18]
98: Plant response rating, Waterhemp [8, 19] | Plant response rating, Nightshade [16, 24]
80: Plant response rating, Ragweed [1, 20] | Plant response rating, Horseweed [5, 21] | Plant response rating, Field Bindweed [9, 19] | Plant response rating, Field Bindweed [9, 21] | Plant response rating, Foxtail, Giant [11, 24] | Plant response rating, Arrowleaf Sida [14, 18]
75: Plant response rating, Waterhemp [8, 21] | Plant response rating, Field Bindweed [9, 20]
10: Plant response rating, Crabgrass, Brazil [3, 20] | Plant response rating, Corn (corn (Zea mays); [17])
35: Plant response rating, Foxtail, Giant [11, 26] | Plant response rating, Crabgrass, Large [13, 24] | Plant response rating, Arrowleaf Sida [14, 19] | Plant response rating, Arrowleaf Sida [14, 23]
0: Plant response rating, Ragweed [1, 22] | Plant response rating, Morningglory [2, 25] | Plant response rating, Morningglory [2, 26] | Plant response rating, Pigweed, Palmer [4, 22] | Plant response rating, Horseweed [5, 22] | Plant response rating, Johnsongrass [6, 25] | Plant response rating, Johnsongrass [6, 26] | Plant response rating, Goosegrass [7, 25] | Plant response rating, Waterhemp [8, 22] | Plant response rating, Waterhemp [8, 23] | Plant response rating, Field Bindweed [9, 22] | Plant response rating, Field Bindweed [9, 23] | Plant response rating, Dayflower, VA [10, 22] | Plant response rating, Foxtail, Giant [11, 25] | Plant response rating, Velvetleaf [12, 25] | Plant response rating, Velvetleaf [12, 26] | Plant response rating, Crabgrass, Large [13, 25] | Plant response rating, Crabgrass, Large [13, 26] | Plant response rating, Corn (corn (Zea mays); [27]) | Plant response rating, Corn (corn (Zea mays); [19]) | Plant response rating, Corn (corn (Zea mays); [20]) | Plant response rating, Corn (corn (Zea mays); [21]) | Plant response rating, Corn (corn (Zea mays); [22]) | Plant response rating, Corn (corn (Zea mays); [23]) | Plant response rating, Surinam Grass [15, 25]
50: Plant response rating, Crabgrass, Brazil [3, 18] | Plant response rating, Pigweed, Palmer [4, 21] | Plant response rating, Goosegrass [7, 24] | Plant response rating, Dayflower, VA [10, 17] | Plant response rating, Arrowleaf Sida [14, 20]
85: Plant response rating, Ragweed [1, 21] | Plant response rating, Pigweed, Palmer [4, 19] | Plant response rating, Horseweed [5, 18]
25: Plant response rating, Goosegrass [7, 28] | Plant response rating, Dayflower, VA [10, 27] | Plant response rating, Dayflower, VA [10, 19] | Plant response rating, Dayflower, VA [10, 23] | Plant response rating, Nightshade [16, 25]
65: Plant response rating, Morningglory [2, 24] | Plant response rating, Pigweed, Palmer [4, 17] | Plant response rating, Velvetleaf [12, 24] | Plant response rating, Arrowleaf Sida [14, 21] | Plant response rating, Nightshade [16, 26]
40: Plant response rating, Crabgrass, Brazil [3, 27] | Plant response rating, Crabgrass, Brazil [3, 21] | Plant response rating, Johnsongrass [6, 24] | Plant response rating, Field Bindweed [9, 27] | Plant response rating, Foxtail, Giant [11, 28] | Plant response rating, Crabgrass, Large [13, 28] | Plant response rating, Arrowleaf Sida [14, 22] | Plant response rating, Surinam Grass [15, 24]
5: Plant response rating, Ragweed [1, 23]
